Experimental data published in PMC6691587, “New CXCR1/CXCR2 inhibitors represent an effective treatment for kidney or head and neck cancers sensitive or refractory to reference treatments” (Theranostics, 2019).
Where two headings read alike, the source gives them in different places.

Legend:
[1] = test system: HuVEC; assay: Boyden chamber migration assay; type: cell-based, human; conditions: CXCL7 50 ng/ml, 2.5 µmol/L compound
Procedure: CXCL7 or VEGFA-stimulated chemotaxis assays were monitored using modified Boyden chambers containing polycarbonate membranes (8-μm pores, Transwell; Corning, Sigma). Cells were seeded onto the upper side of the filters and chambers were placed on 24-well plates containing CXCL7 (50ng/ml) or VEGFA (50ng/ml). Cell migration was followed for 24 h at 37°C in 5% CO2. Migratory cells on the lower membrane surface were fixed in 3% paraformaldehyde, stained with 0.1% crystal violet.

[2] = test system: Molm14; assay: XTT cell viability assay, Molm14 AML cells; type: cell-based, human; conditions: Homo sapiens, MOLM-14, 48 h, SD 10%, mean of three experiments
Procedure: (§1) Fifty microliters of sodium 3′-[1-phenylaminocarbonyl)-3,4-tetrazolium]-bis(4-methoxy-6-nitro) benzene sulfonic acid hydrate (XTT) reagent was added to each well. The assay is based on the cleavage of the yellow tetrazolium salt XTT to form an orange formazan dye by metabolically active cells. This bio-reduction occurs in viable cells only and is related to NAD(P)H production through glycolysis. Therefore, the amount of formazan dye measured at 490 nm directly correlated with the number of metabolically active cells reflecting cell proliferation and viability. Each assay was performed in quadruplicate.

[3] = test system: TF and CC cells; assay: FACS analysis of apoptotic markers, primary tumor cells; type: cell-based; conditions: C29 at 1 µmol/L
Procedure: (§2) Apoptosis analysis: After stimulation, cells were washed with ice-cold PBS and were stained with the annexin-V-fluo staining kit (Roche, Meylan, France) according to the manufacturer's procedure. Fluorescence was measured using the FL2 (AV) and FL3 (propidium iodide, PI) channels of a fluorescence-activated cell sorter apparatus (Calibur cytometer).

[4] = biological target: T1, CXCR2 (Homo sapiens, UniProt P25025); assay: Membrane-associated CXCR2 level in HuVEC by flow cytometry; type: cell-based; conditions: CXCL8 25 ng/ml 1 h, C29 2.5 µmol/L
T1 construct: CXCR1/2 are expressed on endothelial cells and participate in ELR^+CXCL-mediated angiogenesis; endogenous in cells; host or cells: HuVEC
T1 sequence (P25025 whole entry): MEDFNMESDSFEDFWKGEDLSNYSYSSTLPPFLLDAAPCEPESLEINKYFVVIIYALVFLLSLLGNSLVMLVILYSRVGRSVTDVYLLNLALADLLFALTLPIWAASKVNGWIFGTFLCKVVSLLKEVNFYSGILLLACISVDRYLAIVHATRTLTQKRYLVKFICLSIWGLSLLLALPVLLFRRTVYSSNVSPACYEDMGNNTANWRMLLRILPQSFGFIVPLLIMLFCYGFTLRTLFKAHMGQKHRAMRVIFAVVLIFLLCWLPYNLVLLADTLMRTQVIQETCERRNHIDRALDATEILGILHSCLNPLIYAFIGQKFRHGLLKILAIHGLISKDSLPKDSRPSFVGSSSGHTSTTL
Procedure: CXCR2 measurement: After stimulation, cells were washed with PBS and stained with the CXCR2-PE antibody (Miltenyi) for 30 min at room temperature. Fluorescence was measured using the FL2 (PE) channels of a fluorescence-activated cell sorter apparatus (Calibur cytometer).

[5] = test system: CAL27; assay: XTT cell viability assay, CAL27 HNSCC cells; type: cell-based, human; conditions: for IC50: Homo sapiens, CAL-27
Procedure: as §1

[6] = test system: caspase 3; assay: Caspase 3 activity assay; type: cell-based, human; conditions: 786, 786R, CAL27, CAL27R; 2.5 and 5 µM, 48 h
Procedure: Caspase assays have already been described. Briefly, the caspase 3 activity was assessed in quadruplicate using z-DEVD-AMC as substrate and the fluorescence were assessed.

[7] = test system: normal cells (15S); assay: FACS analysis of apoptotic markers, normal cells; type: cell-based; conditions: C29 at 1 µmol/L
Procedure: as §2

[8] = test system: CAL33; assay: Ectopic model of HNSCC (CAL33 xenograft); type: in vivo, nude (nu/nu) female mice
Procedure: One microgram of total RNA was used for the reverse transcription, using the QuantiTect Reverse Transcription kit (QIAGEN, Hilden, Germany), with blend of oligo (dT) and random primers to prime first-strand synthesis. SYBR master mix plus (Eurogentec) was used for qPCR. The mRNA level was normalized to 36B4 mRNA. The sequences of oligo nucleotides used in our experiments are describe in Table S1.
These studies were carried out in strict accordance with the recommendations in the Guide for the Care and Use of Laboratory Animals. Our experiments were approved by the ''Comité National Institutionnel d'Ethique pour l'Animal de Laboratoire'' (reference: PEA-255 and PEA-277). Cells were injected subcutaneously into the flank of 5-week-old nude (nu/nu) female mice (Janvier). When the tumor reached 100 mm^3, mice were treated. The tumor volume was determined with a caliper (v = L*l2*0.5).
One million CAL33 were injected subcutaneously.
Sections of formol-fixed and paraffin-embedded tumors were incubated with monoclonal anti-Ki67 (clone MIB1, DAKO) or anti-CD31 (clone MEC 13.3, BD Pharmingen) antibodies. A biotinylated secondary antibody (DAKO) was applied and binding was detected with the substrate diaminobenzidine against a hematoxylin counterstain.

[9] = test system: Molm13; assay: XTT cell viability assay, Molm13 AML cells; type: cell-based, human; conditions: Homo sapiens, MOLM-13, 48 h, SD 10%, mean of three experiments
Procedure: as §1

[10] = test system: OCI-AML3; assay: XTT cell viability assay, OCI-AML3 AML cells; type: cell-based, human; conditions: Homo sapiens, OCI-AML-3, 48 h, SD 10%, mean of three experiments, read-out: IC50 L3 (AML)
Procedure: as §1

[11] = test system: primary kidney tumor cells (CC); assay: Cell viability, primary kidney tumor cells CC; type: cell-based
Procedure: as §1
For the experiments with C29, we confirmed all the results by evaluating the cell viability. Cell viability and cell death was assessed using the ADAM-MC apparatus (NanoEnTek, Guro-gu, Seoul, Korea) based on fluorescent propidium iodide staining according to the manufacturer's instructions.
(§3) To determine the selectivity of the activity of the substances tested, the selectivity index (SI) was calculated according to the equation previously described where SI = IC50 of a compound in a normal cell line/IC50 of the same compound in cancer cell line. The IC50 is the concentration required to kill 50% of the cell population.

[12] = biological target: T2, CXCR1 (Homo sapiens, UniProt P25024); assay: Membrane-associated CXCR1 level in HuVEC by flow cytometry; type: cell-based; conditions: CXCL7 25 ng/ml 1 h, C29 2.5 µmol/L
T2 construct: CXCR1/2 are expressed on endothelial cells and participate in ELR^+CXCL-mediated angiogenesis; endogenous in cells; host or cells: HuVEC
T2 sequence (P25024 whole entry): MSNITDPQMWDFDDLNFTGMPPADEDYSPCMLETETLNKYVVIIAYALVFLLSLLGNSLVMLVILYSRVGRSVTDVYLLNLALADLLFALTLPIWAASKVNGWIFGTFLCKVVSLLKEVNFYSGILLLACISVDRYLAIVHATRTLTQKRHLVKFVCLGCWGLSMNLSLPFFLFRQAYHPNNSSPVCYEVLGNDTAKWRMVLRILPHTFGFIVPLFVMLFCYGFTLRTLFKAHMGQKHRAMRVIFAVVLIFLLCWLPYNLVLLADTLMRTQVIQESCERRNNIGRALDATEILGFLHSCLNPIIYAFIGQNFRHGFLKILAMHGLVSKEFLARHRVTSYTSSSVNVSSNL

[13] = test system: panel of human tumor cell lines; assay: XTT screening on a panel of tumor cell lines; type: cell-based; conditions: Homo sapiens; read-out: IC50 values for several cancer cell lines
Procedure: as §1

[14] = test system: uveal melanoma cells (Mel202); assay: Cell viability, uveal melanoma cells; type: cell-based
Procedure: as §1, §3

[15] = test system: 786, 786R, CAL27 and CAL27R cells; assay: Apoptosis analysis (annexin-V/PI flow cytometry); type: cell-based, human; conditions: sensitive and resistant cells, 2.5 µM, 48 h
Procedure: as §2

[16] = CAL33 xenograft, 100 mg/kg gavage

IC50 [2]: 4 µM | CXCR2 levels at the plasma membrane [4]: increased | caspase 3 activity [6]: increase | weight loss of the animals, HNSCC model [8, 16]: did not observe any weight loss | IC50 [9]: 7 µM | IC50 [10]: 4 µM | IC50 ([11]; CXCR1+/CXCR2+): 2000 nM | CXCR1 levels at the plasma membrane [12]: increased | IC50 [13]: < 20 µM | IC50 ([14]; Mel202, CXCR1-/CXCR2-): 10 µM
Compound: O=C(Nc1cccc(Cl)c1)Nc1nc2ccc([N+](=O)[O-])cc2s1 [C29]
CXCL7-dependent migration of HuVECs [1]: decreased | apoptotic markers in TF and CC cells [3]: detected apoptotic markers | IC50 ([5]; CXCR1+/CXCR2+, read-out: IC50 CAL27): 2500 nM | IC50 ([5]; XTT assay, 48 h, SD 10%, mean of three experiments, read-out: IC50 27 (HNSCC)): 2500 nM | Selectivity index CAL27 ([5]; SI = IC50 in normal cells (15S)/IC50 in CAL27): 5 | effect on CAL27 HNSCC cell viability compared with cisplatin ([5]; XTT, 1 to 10 µM 48 h, 2.5 µM 24 to 96 h): greater than that of cisplatin | apoptotic markers in normal cells (15S) [7]: not the case for normal cells | mRNA level of murine CD31, experimental HNSCC ([8]; CAL33 xenograft): decreased | decrease in the tumor weight, HNSCC [8, 16]: 65% | proliferation marker Ki-67, experimental HNSCC [8, 16]: decreased | decrease of the tumor volume at the end of the experiment, HNSCC ([8]; CAL33 xenograft, 100 mg/kg gavage five times a week for two weeks): more than 65% | PI3K/AKT and ERK pathways in tumor lysates, experimental HNSCC ([8]; immunoblotting, CAL33 xenograft): both pathways | efficacy on experimental HNSCC compared with danirixin and cisplatin ([8]; oral gavage 100 mg/kg five times a week): more efficient than danirixin, at the same dose, or than the reference treatment with cisplatin | mRNA levels of ERL+CXCL cytokines, experimental HNSCC ([8]; qPCR, CAL33 xenograft): Only CXCL5 was decreased | proliferation of primary kidney tumor cells CC ([11]; Figure S8A-B): significantly decreased | Selectivity index CC ([11]; SI = IC50 in normal cells (15S)/IC50 in CC): 6.25 | proliferation/survival of uveal melanoma cells (Mel202) ([14]; 2.5 µmol/L): did not affect | Selectivity index Mel202 ([14]; SI = IC50 in normal cells (15S)/IC50 in Mel202): 1.25 | cell death (annexin-V/PI) [15]: induced cell death
